Experimental data reported in patent US20080248040A1, “Nucleic Acid Molecules Encoding Novel Human Low-Voltage Activated Calcium Channel Proteins, Designed-Alpha 1I-1 and Alpha 1I-2, Encoded Proteins and Methods of Use Thereof” (priority 2003, published 2008).

Assays:
[1] = molecular target: T1, human calcium channel α1I subunit (α1I channel) (Homo sapiens, UniProt Q9P0X4, I1040V); assay: Calcium influx measured by FLIPR in B21 cells; assay type: cell-based; details: for IC50: B21 cell induced by 0.1 uM tetracycline, mean ± S.E., n=3, read-out: IC50 for inhibition of calcium influx
T1 construct: expressed in transfected cells
T1 sequence (Q9P0X4 1-1981 isoform Q9P0X4-3 I1005V): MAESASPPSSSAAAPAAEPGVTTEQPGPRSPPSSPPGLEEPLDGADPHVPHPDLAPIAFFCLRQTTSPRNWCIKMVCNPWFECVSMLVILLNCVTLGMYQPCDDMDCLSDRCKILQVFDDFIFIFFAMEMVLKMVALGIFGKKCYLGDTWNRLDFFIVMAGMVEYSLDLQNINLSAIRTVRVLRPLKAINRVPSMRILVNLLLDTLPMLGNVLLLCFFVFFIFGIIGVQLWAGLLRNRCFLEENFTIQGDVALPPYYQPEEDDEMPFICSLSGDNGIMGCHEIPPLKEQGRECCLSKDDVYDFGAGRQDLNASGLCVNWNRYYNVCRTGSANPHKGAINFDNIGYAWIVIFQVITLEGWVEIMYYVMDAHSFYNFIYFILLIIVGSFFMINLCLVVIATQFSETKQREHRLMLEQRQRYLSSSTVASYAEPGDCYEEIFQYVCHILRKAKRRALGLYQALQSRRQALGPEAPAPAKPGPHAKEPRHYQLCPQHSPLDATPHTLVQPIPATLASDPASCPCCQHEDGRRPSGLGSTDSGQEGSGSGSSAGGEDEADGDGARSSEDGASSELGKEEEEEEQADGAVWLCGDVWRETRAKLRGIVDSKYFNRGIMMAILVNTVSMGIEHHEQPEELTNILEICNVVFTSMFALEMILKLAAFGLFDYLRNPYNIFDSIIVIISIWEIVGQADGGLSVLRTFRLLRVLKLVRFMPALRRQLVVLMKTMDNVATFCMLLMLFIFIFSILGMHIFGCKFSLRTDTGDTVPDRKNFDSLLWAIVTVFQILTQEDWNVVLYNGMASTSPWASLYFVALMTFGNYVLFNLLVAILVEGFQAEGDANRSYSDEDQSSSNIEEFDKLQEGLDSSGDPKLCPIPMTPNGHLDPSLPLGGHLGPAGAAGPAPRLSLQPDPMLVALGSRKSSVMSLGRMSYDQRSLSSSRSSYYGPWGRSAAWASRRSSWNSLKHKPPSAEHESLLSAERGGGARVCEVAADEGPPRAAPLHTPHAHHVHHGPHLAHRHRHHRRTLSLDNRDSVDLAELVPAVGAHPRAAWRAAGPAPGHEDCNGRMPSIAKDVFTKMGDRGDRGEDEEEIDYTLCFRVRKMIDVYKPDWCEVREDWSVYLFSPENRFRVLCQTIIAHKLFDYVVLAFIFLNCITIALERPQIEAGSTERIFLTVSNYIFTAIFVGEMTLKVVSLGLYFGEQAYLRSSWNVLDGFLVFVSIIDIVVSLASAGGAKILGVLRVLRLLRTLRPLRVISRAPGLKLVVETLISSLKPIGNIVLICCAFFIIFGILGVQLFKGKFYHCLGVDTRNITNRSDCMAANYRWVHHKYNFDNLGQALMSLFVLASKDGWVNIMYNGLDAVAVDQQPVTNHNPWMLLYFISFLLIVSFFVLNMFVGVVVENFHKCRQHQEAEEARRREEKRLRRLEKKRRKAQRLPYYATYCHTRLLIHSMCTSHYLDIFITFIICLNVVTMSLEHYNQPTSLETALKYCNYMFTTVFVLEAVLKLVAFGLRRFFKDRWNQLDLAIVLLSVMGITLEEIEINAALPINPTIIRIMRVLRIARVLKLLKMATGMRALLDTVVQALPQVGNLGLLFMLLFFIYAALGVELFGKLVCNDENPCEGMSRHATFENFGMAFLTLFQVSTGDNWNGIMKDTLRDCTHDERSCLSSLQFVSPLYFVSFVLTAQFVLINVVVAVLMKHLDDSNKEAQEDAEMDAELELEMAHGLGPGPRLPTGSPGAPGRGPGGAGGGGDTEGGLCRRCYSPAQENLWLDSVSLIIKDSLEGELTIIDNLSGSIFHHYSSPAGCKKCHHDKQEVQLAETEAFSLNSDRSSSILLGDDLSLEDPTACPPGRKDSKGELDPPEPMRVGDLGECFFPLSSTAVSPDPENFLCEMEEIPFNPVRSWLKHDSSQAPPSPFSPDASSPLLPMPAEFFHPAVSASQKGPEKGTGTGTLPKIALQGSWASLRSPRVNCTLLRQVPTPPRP
Procedure: Intracellular calcium concentration was monitored by the FLIPR™ technique (Molecular Devices, Sunnyvale, Calif.). Briefly, the cells were seeded into black 96 well plates with clear bottoms at a density of 35,000 cells/well and cultured for 5 hr.

[2] = molecular target: α1I T-type calcium channel (Homo sapiens, UniProt Q9P0X4, I1040V); assay: Whole-cell patch clamp (voltage-clamp) recordings on the B21 cell line
Sequence of α1I T-type calcium channel (Q9P0X4 1-1981 isoform Q9P0X4-3 I1005V): as above

[3] = tested on: T-type currents in thalamic (ventrobasal complex) neurons; details: physiologically relevant doses; Coulter et al. 1989; cited from earlier work
[4] = tested on: T-type Ca^2+ current in DRG neurons; details: freshly dissected DRG neurons of adult rats; Todorovic and Lingle 1998; cited from earlier work

Structure (SMILES) | IC50 [1] | effect on T-type currents in thalamic neurons (in words) [3] | further results
[Ca+2] [Ca^2+] | – | – | EC50 ([1]; B21 cells induced by 0.1 μM tetracycline, read-out: EC50 of Ca^2+ influx after Ca^2+ addition): 1000 µM
COCCOC(=O)C1=C(C)NC(C)=C(C(=O)OC(C)C)C1c1cccc([N+](=O)[O-])c1 (centres unmarked) [Nimodipine] | 9.51 ± 0.788 µM | – | –
O=c1[nH]c2ccccc2n1C1CCN(CCCC(c2ccc(F)cc2)c2ccc(F)cc2)CC1 [Pimozide] | 1 ± 0.109 µM | – | % Inhibition (Ave ± SEM) of peak calcium current ([2]; 100 nM antagonist, −100 mV holding potential): 32 ± 2%; potency estimated from few doses ([2]; read-out: Est IC50): 0.216 µM
CC1(C)OC(=O)NC1=O [dimethadione] | – | partially depress | –
CCC1(C)CC(=O)NC1=O (centres unmarked) [ethosuximide] | – | partially depress | effect on T-type Ca^2+ current in DRG neurons (in words) [4]: fully block
